From patent publication US9487510B2, “Substituted heterocyclic acetamides as kappa opioid receptor (KOR) agonists” (Dr. Reddy's Laboratories Ltd., priority 2012, dated 2016)
Where a name gives a salt, the structure may show the parent alone.

Biological target: human KOR receptor (Homo sapiens, UniProt P41145)
Assay: IP-One HTRF assay, potency of KOR agonists, dose-response in transiently transfected COS-7 cells
Type: cell-based

Chain of human KOR receptor (P41145 whole entry): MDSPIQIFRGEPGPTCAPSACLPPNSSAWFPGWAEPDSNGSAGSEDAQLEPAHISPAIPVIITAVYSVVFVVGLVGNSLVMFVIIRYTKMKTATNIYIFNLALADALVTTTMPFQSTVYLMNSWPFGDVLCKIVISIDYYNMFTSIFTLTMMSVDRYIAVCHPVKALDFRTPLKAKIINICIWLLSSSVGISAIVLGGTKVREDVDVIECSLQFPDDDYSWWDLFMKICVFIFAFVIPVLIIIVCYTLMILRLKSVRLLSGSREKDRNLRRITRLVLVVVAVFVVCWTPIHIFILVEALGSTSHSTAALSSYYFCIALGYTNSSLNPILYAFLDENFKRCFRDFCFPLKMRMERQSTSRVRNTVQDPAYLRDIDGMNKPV

SMILES | EC50 [µM]
CC(C)(C)OC(=O)COc1cccc(C(CN2CC[C@H](O)C2)NC(=O)Cc2ccc3oc(=O)[nH]c3c2)c1 (mixture of isomers) [Example 74, (S)-tert-butyl 2-(3-(2-(3-hydroxypyrrolidin-1-yl)-1-(2-(2-oxo-2,3-dihydrobenzo[d]oxazol-5-yl)acetamido)ethyl)phenoxy)acetate] | ≤ 0.05
CN(C(=O)Cc1ccc2oc(=O)[nH]c2c1)C(CN1CC[C@H](O)C1)c1cccc(OCC#N)c1 (mixture of isomers) [Example 76, N-(1-(3-(cyanomethoxy)phenyl)-2-(3-hydroxypyrrolidin-1-yl)ethyl)-N-methyl-2-(2-oxo-2,3-dihydrobenzo[d]oxazol-5-yl)acetamide] | ≤ 0.05
O=C(O)COc1cccc(C(CN2CC[C@H](O)C2)NC(=O)Cc2ccc3c(c2)NC(=O)C3)c1 (mixture of isomers) [Example 100, (S)-2-(3-(2-(3-hydroxypyrrolidin-1-yl)-1-(2-(2-oxoindolin-6-yl)acetamido)ethyl)phenoxy)acetic acid hydrochloride] | ≤ 0.05
O=C(O)COc1cccc(C(CN2CC[C@H](O)C2)NC(=O)Cc2ccc3oc(=O)[nH]c3c2)c1 (mixture of isomers) [Example 101, (S)-2-(3-(2-(3-hydroxypyrrolidin-1-yl)-1-(2-(2-oxo-2,3-dihydrobenzo[d]oxazol-5-yl)acetamido)ethyl)phenoxy)acetic acid] | ≤ 0.05
CN(C(=O)Cc1ccc2oc(=O)[nH]c2c1)C(CN1CC[C@H](O)C1)c1cccc(OCc2nn[nH]n2)c1 (stereo in doubt) [Example 105, (R)-N-(1-(3-((2H-tetrazol-5-yl)methoxy)phenyl)-2-(3-hydroxypyrrolidin-1-yl)ethyl)-N-methyl-2-(2-oxo-2,3-dihydrobenzo[d]oxazol-5-yl)acetamide] | ≤ 0.05
CN(C(=O)Cc1ccc2c(c1)NC(=O)CS2(=O)=O)[C@H](CN1CCC(O)C1)c1ccccc1 (stereo in doubt) [Example 120, 2-(1,1-dioxido-3-oxo-3,4-dihydro-2H-benzo[b][1,4]thiazin-6-yl)-N-((S)-2-((S)-3-hydroxypyrrolidin-1-yl)-1-phenylethyl)-N-methylacetamide] | ≤ 0.05
CC(C)CN(C(=O)Cc1ccc2c(c1)NC(=O)CS2(=O)=O)[C@H](CN1CCC(O)C1)c1cccc(OC(F)(F)F)c1 (stereo in doubt) [Example 140, 2-(1,1-dioxido-3-oxo-3,4-dihydro-2H-benzo[b][1,4]thiazin-6-yl)-N-((S)-2-((S)-3-hydroxypyrrolidin-1-yl)-1-(3-(trifluoromethoxy)phenyl)ethyl)-N-isobutylacetamide] | ≤ 0.05
O=C1CS(=O)(=O)c2ccc(CC(=O)N(CC3CC3)[C@H](CN3CCC(O)C3)c3cccc(OC(F)(F)F)c3)cc2N1 (stereo in doubt) [Example 141, N-(cyclopropylmethyl)-2-(1,1-dioxido-3-oxo-3,4-dihydro-2H-benzo[b][1,4]thiazin-6-yl)-N-((S)-2-((S)-3-hydroxypyrrolidin-1-yl)-1-(3-(trifluoromethoxy)phenyl)ethyl)acetamide] | ≤ 0.05
CN(C(=O)Cc1ccc2c(c1)NC(=O)CS2(=O)=O)C(CN1CC[C@H](O)C1)c1ccc(OC(F)(F)F)cc1 (stereo in doubt) [Example 142, 2-(1,1-dioxido-3-oxo-3,4-dihydro-2H-benzo[b][1,4]thiazin-6-yl)-N-((S)-2-((S)-3-hydroxypyrrolidin-1-yl)-1-(4-(trifluoromethoxy)phenyl)ethyl)-N-methylacetamide] | ≤ 0.05
Cc1cc(C)cc([C@@H](CN2CCC(O)C2)N(C)C(=O)Cc2ccc3c(c2)NC(=O)CS3(=O)=O)c1 (stereo in doubt) [Example 147, N-((S)-1-(3,5-dimethylphenyl)-2-((S)-3-hydroxypyrrolidin-1-yl)ethyl)-2-(1,1-dioxido-3-oxo-3,4-dihydro-2H-benzo[b][1,4]thiazin-6-yl)-N-methylacetamide] | ≤ 0.05
CN(C(=O)Cc1ccc2c(c1)NC(=O)CS2(=O)=O)C(CN1CCC(O)C1)c1cccc(C2CC2)c1 (stereo in doubt) [Example 150, N-((S)-1-(3-cyclopropylphenyl)-2-((S)-3-hydroxypyrrolidin-1-yl)ethyl)-2-(1,1-dioxido-3-oxo-3,4-dihydro-2H-benzo[b][1,4]thiazin-6-yl)-N-methylacetamide] | ≤ 0.05
CN(C(=O)Cc1ccc2c(c1)CC(=O)N2)C(CN1CCC(O)C1)c1ccccc1 (stereo in doubt) [Example 161, N-((S)-2-((S)-3-hydroxypyrrolidin-1-yl)-1-phenylethyl)-N-methyl-2-(2-oxoindolin-5-yl)acetamide] | ≤ 0.05
O=C1COc2ccc(CC(=O)N[C@H](CN3CC[C@H](O)C3)c3ccccc3)cc2N1 [Example 2, N-[(1S)-2-[(3S)-3-hydroxypyrrolidin-1-yl]-1-phenylethyl]-2-(3-oxo-3,4-dihydro-2H-1,4-benzoxazin-6-yl)acetamide] | ≤ 0.05
O=C(Cc1ccc2sc(=O)[nH]c2c1)N[C@H](CN1CCCC1)c1ccccc1 [Example 4, (S)-2-(2-oxo-2,3-dihydrobenzo[d]thiazol-5-yl)-N-(1-phenyl-2-(pyrrolidin-1-yl)ethyl)acetamide] | 0.051 to 0.1
CN(C(=O)Cc1ccc2c(c1)NC(=O)CS2(=O)=O)[C@H](CN1CC[C@H](O)C1)c1cccc(OC(F)(F)F)c1 [Example 5, 2-(1,1-dioxido-3-oxo-3,4-dihydro-2H-benzo [b][1,4]thiazin-6-yl)-N-((S)-2-((S)-3-hydroxypyrrolidin-1-yl)-1-(3-(trifluoromethoxy)phenyl)ethyl)-N-methylacetamide] | ≤ 0.05
CN(C(=O)Cc1ccc2c(c1)NC(=O)CS2(=O)=O)[C@H](CN1CC[C@H](O)C1)c1cccc(C#N)c1 [Example 6, N-((S)-1-(3-cyanophenyl)-2-((S)-3-hydroxypyrrolidin-1-yl)ethyl)-2-(1,1-dioxido-3-oxo-3,4-dihydro-2H-benzo[b][1,4]thiazin-6-yl)-N-methylacetamide] | ≤ 0.05
CN(C(=O)Cc1ccc2c(c1)NC(=O)CS2)[C@H](CN1CC[C@H](O)C1)c1ccccc1 [Example 7, N-((S)-2-((S)-3-hydroxypyrrolidin-1-yl)-1-phenylethyl)-N-methyl-2-(3-oxo-3,4-dihydro-2H-benzo[b][1,4]thiazin-6-yl)acetamide] | ≤ 0.05
CN(C(=O)Cc1ccc2c(c1)S(=O)(=O)NC2=O)[C@H](CN1CC[C@H](O)C1)c1ccccc1 [Example 8, 2-(1,1-dioxido-3-oxo-2,3-dihydrobenzo[d]isothiazol-6-yl)-N-((S)-2-((S)-3-hydroxypyrrolidin-1-yl)-1-phenylethyl)-N-methylacetamide] | ≥ 1
CN(C(=O)Cc1ccc2c(c1)NS(=O)(=O)C2)[C@H](CN1CC[C@H](O)C1)c1cccc(C(F)(F)F)c1 [Example 9, 2-(2,2-dioxido-1,3-dihydrobenzo[c]isothiazol-6-yl)-N-((S)-2-((S)-3-hydroxypyrrolidin-1-yl)-1-(3-(trifluoromethyl)phenyl)ethyl)-N-methylacetamide] | 0.101 to 1
CN(C(=O)Cc1ccc2c(c1)CS(=O)(=O)N2)[C@H](CN1CC[C@H](O)C1)c1ccccc1 [Example 10, 5-(2-(((S)-2-((S)-3-hydroxypyrrolidin-1-yl)-1-phenylethyl)(methyl)amino)-2-oxoethyl)-1,3-dihydrobenzo[c]isothiazol-1-ium 2,2-dioxide 2,2,2-trifluoroacetate] | 0.101 to 1
CN(C(=O)Cc1ccc2c(c1)NC(=O)CS2(=O)=O)[C@H](CN1CC[C@H](O)C1)c1cccc(OC(F)F)c1 [Example 11, N-((S)-1-(3-(difluoromethoxy)phenyl)-2-((S)-3-hydroxypyrrolidin-1-yl)ethyl)-2-(1,1-dioxido-3-oxo-3,4-dihydro-2H-benzo[b][1,4]thiazin-6-yl)-N-methylacetamide] | ≥ 1
CN(C(=O)Cc1ccc2c(c1)NC(=O)C2(F)F)[C@H](CN1CC[C@H](O)C1)c1ccccc1 [Example 12, 2-(3,3-difluoro-2-oxoindolin-6-yl)-N-((S)-2-((S)-3-hydroxypyrrolidin-1-yl)-1-phenylethyl)-N-methylacetamide] | ≤ 0.05
O=C(Cc1ccc2c(c1)NC(=O)C2(F)F)N[C@H](CN1CC[C@H](O)C1)c1ccccc1 [Example 13, 2-(3,3-difluoro-2-oxoindolin-6-yl)-N-((S)-2-((S)-3-hydroxypyrrolidin-1-yl)-1-phenylethyl)acetamide] | ≥ 1
CCN(C(=O)Cc1ccc2c(c1)NC(=O)CS2(=O)=O)[C@H](CN1CC[C@H](O)C1)c1cccc(OC(F)(F)F)c1 [Example 14, 2-(1,1-dioxido-3-oxo-3,4-dihydro-2H-benzo[b][1,4]thiazin-6-yl)-N-ethyl-N-((S)-2-((S)-3-hydroxypyrrolidin-1-yl)-1-(3-(trifluoromethoxy)phenyl)ethyl)acetamide] | ≥ 1
CO[C@H]1CCN(C[C@H](c2cccc(OC(F)(F)F)c2)N(C)C(=O)Cc2ccc3c(c2)NC(=O)CS3(=O)=O)C1 [Example 15, 2-(1,1-dioxido-3-oxo-3,4-dihydro-2H-benzo[b][1,4]thiazin-6-yl)-N-((S)-2-((S)-3-methoxypyrrolidin-1-yl)-1-(3-(trifluoromethoxy)phenyl)ethyl)-N-methylacetamide] | ≤ 0.05
O=C1CS(=O)(=O)c2ccc(CC(=O)N(CC(F)(F)F)[C@H](CN3CC[C@H](O)C3)c3cccc(OC(F)(F)F)c3)cc2N1 [Example 16, 2-(1,1-dioxido-3-oxo-3,4-dihydro-2H-benzo[b][1,4]thiazin-6-yl)-N-((S)-2-((S)-3-hydroxypyrrolidin-1-yl)-1-(3-(trifluoromethoxy)phenyl)ethyl)-N-(2,2,2-trifluoroethyl)acetamide 2,2,2-trifluoroacetate] | ≤ 0.05
CN(C(=O)Cc1ccc2c(c1)NC(=O)CS2(=O)=O)C(CN1CC[C@H](O)C1)C1CCOCC1 (stereo partly drawn) [Example 17, 2-(1,1-dioxido-3-oxo-3,4-dihydro-2H-benzo[b][1,4]thiazin-6-yl)-N-(2-((S)-3-hydroxypyrrolidin-1-yl)-1-(tetrahydro-2H-pyran-4-yl)ethyl)-N-methylacetamide-2,2,2-trifluoroacetate] | 0.101 to 1
CN(C(=O)Cc1ccc2sc(=O)[nH]c2c1)[C@H](CN1CC[C@H](O)C1)c1cccc(C(=O)O)c1 [Example 18, 3-((S)-2-((S)-3-hydroxypyrrolidin-1-yl)-1-(N-methyl-2-(2-oxo-2,3-dihydrobenzo[d]thiazol-5-yl)acetamido)ethyl)benzoic acid] | ≤ 0.05
